Source: patent US10329259B2, “Pyrazole derivatives and their use as cannabinoid receptor mediators” (The United States of America, as represented by the …, priority 2014, dated 2019)
Like-named read-outs stand apart in the source and are kept apart here.

Target: T1, mouse CB1 receptor (Mus musculus, UniProt P47746)
T1 construct: radioligand displacement assay using mouse brain plasma membranes; from tissue; host or cells: mouse brain plasma membranes
Assay: radioligand displacement assay using mouse brain plasma membranes and 3H-CP55540
Format: binding
Source text: In addition, the compounds disclosed herein may be less lipophilic.

T1 sequence (P47746 whole entry): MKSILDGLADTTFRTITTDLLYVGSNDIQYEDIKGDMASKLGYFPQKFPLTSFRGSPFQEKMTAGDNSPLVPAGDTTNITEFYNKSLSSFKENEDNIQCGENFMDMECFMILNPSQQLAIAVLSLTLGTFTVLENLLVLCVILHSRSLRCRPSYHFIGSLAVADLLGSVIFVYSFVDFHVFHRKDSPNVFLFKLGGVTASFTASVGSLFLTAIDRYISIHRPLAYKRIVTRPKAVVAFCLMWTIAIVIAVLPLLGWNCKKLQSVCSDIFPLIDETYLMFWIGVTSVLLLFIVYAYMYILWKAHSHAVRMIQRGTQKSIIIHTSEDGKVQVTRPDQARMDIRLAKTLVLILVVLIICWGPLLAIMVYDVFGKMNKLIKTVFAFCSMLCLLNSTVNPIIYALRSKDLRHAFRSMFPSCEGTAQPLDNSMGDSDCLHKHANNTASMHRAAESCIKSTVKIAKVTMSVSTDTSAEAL

Row | SMILES | Ki (mouse brain plasma membranes, 3H-CP55540 as labeled ligand, read-out: Ki CB1) | Ki
1 | CC(=O)NC(=N)NC(=NS(=O)(=O)N1CCC(F)(F)CC1)N1CC(c2ccccc2)C(c2ccc(Cl)cc2)=N1 (stereo not drawn) [MRI-1950] | 1.2 nM | 
2 | CC(C)(C)/C(N)=N/C(=N/S(=O)(=O)N1CCC(F)(F)CC1)N1CC(c2ccccc2)C(c2ccc(Cl)cc2)=N1 (stereo not drawn) [Table 1 Serial # 10] |  | 21 nM
3 | C/C(N)=N/C(=N/S(=O)(=O)N1CCC(C(F)(F)F)CC1)N1CC(c2ccccc2)C(c2ccc(Cl)cc2)=N1 (stereo not drawn) [Table 1 Serial # 13] |  | 3 nM
